Consider one molecule from publication PMC5577601, “The Neuroprotective Marine Compound Psammaplysene A Binds the RNA-Binding Protein HNRNPK” (Marine Drugs, 2017).

For this test, the target named is T1, HNRNPK (Homo sapiens, UniProt P61978).
T1 construct: GST-HNRNPK
Briefly: surface plasmon resonance (Biacore […]), RNA-saturated GST-HNRNPK vs GST; a second estimate vs GST-HNRNPI gave Kd […]. Format: binding.

The structures appear in SMILES notation.

Turning to `CN(C)CCCOc1c(Br)cc(/C=C/C(=O)NCCCOc2c(Br)cc(CCN(C)C)cc2Br)cc1Br` [PA, Psammaplysene A], the dissociation constant Kd is 77.3 µM.

The term Kd denotes a measure of binding affinity in units of concentration.
